# Reference: US7455860B2, “Dietary supplement formulation for controlling inflammation and cancer” (Laila Nutraceuticals, priority 2005, dated 2008)
# “And” between values parts separate entries of the source, which are not always exact repeats. Identical values can stand only once.
# What was measured:
# [1] = test system: Freund's Adjuvant-Induced Arthritis; assay: Freund's Adjuvant-Induced Arthritis in Wistar Albino rats (paw volume by Plethysmograph); assay type: in vivo
# Experimental: Effect of 5-LOXIN compositions on Freund's Adjuvant-Induced Arthritis in Winstar Albino rats: Wistar Albino rats of either sex were selected randomly and divided into groups containing 6 rats (3 male and 3 female) each. The rats of treatment groups were administered orally a suspension of 5-LOXIN (15 mg/kg, p.o.) or glucosamine salt (135 mg/kg, p.o.) or curcuminoids (20 mg/kg, p.o.) or ginger (3 mg/kg, p.o.) or one fifth of a formulation containing unit doses of all the four ingredients [formulation I: 5-LOXIN (15 mg)+glucosamine (135 mg)+curcuminoids DP 95% (20 mg)+Ginger DP 15% total pungent compounds (3 mg)]or prednisolone (10 mg/kg, p.o.) in 0.5% CMC, for 30 days. The control group received 0.5% CMC. Following the drug treatment all animals were challenged, on 31st day, with 50 μl of complete Freund's adjuvant injection to the sub plantar region of right hind paw. The paw volume was measured before (V0) and after the injection of Freund's adjuvant at the end of 30, 60, 120, 180, 240 and 360 min by Plethysmograph. The paw oedema was measured everyday upto 17th day.
# degenerative arthritis = settings: treatment group; 20% in placebo group; cited from earlier work
compound,measurement,setting,value
"Cl.N[C@H]1C(O)O[C@H](CO)[C@@H](O)[C@@H]1O (some centres unmarked) [Glucosamine, glucosamine hydrochloride]",% protection,"[1]; day 13, against control group mean oedema 0.478",37.94%
same,"Day-13 E, ME (mean oedema of the group)","[1]; group mean, oral treatment for 30 days",0.30 mL
same,"Paw Volume After Freund's Adjuvant, Day-13 E (oedema)","[1]; individual rat, Day-13 PV minus 0 hr, oral treatment for 30 days, hydrochloride",0.37 mL and 0.3 mL and 0.22 mL
same,"Paw Volume After Freund's Adjuvant, Day-13 PV","[1]; individual rat, oral treatment for 30 days, adjuvant on 31st day, read on day 13, dose per sample in table, hydrochloride",1.56 mL and 1.59 mL and 1.53 mL
"CS(C)(=O)=O [MSM, Methylsulfonylmethane]",Improvement in degenerative arthritis,degenerative arthritis,80%
